“And” between values parts separate entries of the source, which are not always exact repeats. Equal values may be shown once. Read-outs that look alike come from different tables or passages of the source. Marks after values point to notes of the source that are not given here.
Key:
[1] = test system: AREc32 reporter cell line (luciferase reporter under eight copies of the rat GSTA2 ARE sequence); test: AREc32 luciferase reporter activation; type: cell-based, human; details: for EC (2-fold): Homo sapiens, Arec32, concentration that increases the luminescence signal 2-fold above vehicle, 19 h treatment, read-out: AREc32 EC2X (Mean ± SD); for AREc32 Relative to CC in Same Experiment (Mean ± SD): average of ratios from three replicate experiments
CYP3A4 = biological target: T1, CYP3A4 (Homo sapiens, UniProt P08684); test: CYP3A4 (midazolam) inhibition in human liver microsomes; type: in vitro ADME; details: probe midazolam; human liver microsomes 0.1 mg/mL, midazolam substrate, 1 μM test compound, 37° C. 10 min
T1 construct: containing 0.1 mg/mL human liver microsomes; from tissue; host or cells: human liver microsomes
T1 sequence (P08684 whole entry): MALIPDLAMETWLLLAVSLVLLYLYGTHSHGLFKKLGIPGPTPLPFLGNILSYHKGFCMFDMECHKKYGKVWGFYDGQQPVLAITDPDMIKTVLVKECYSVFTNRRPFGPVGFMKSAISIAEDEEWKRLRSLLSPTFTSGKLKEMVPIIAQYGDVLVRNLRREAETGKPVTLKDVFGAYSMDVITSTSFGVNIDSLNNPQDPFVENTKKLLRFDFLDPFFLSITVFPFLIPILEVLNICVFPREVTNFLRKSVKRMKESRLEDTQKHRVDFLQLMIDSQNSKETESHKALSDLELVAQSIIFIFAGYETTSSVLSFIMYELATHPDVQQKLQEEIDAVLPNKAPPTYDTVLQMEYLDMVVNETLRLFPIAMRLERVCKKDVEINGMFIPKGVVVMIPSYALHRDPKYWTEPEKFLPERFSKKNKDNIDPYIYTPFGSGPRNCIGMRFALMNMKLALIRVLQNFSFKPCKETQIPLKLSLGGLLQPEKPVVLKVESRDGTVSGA
Method: Methods. Several compounds were evaluated for CYP3A4 (midazolam) inhibition in human liver microsomes at 1 μM. CYP3A4 inhibition was tested using an in vitro assay as generally described in Dierks et al. (Drug Metabolism Deposition, 29:23-29, 2001, which is incorporated by reference herein). Each sample, containing 0.1 mg/mL human liver microsomes, […] as substrate, and 1 μM of test compound, was incubated at 37° C. for 10 min. Following incubation, the metabolite 1-hydroxymidazolam was measured using HPLC-MS/MS. Peak areas corresponding to the metabolite of the substrate were recorded. The percent of control activity was then calculated by comparing the peak area obtained in the presence of the test compound to that obtained in the absence of the test compound. Subsequently, the percent inhibition was calculated by subtracting the percent control activity from 100 for each compound.

[2] = test system: IFNγ-induced NO production in RAW 264.7 cells; test: Nitric oxide suppression assay (IFNγ-induced NO production, Griess nitrite readout); type: cell-based, mouse; details: for IC50: Mus musculus, RAW264.7, RAW 264.7 cells, read-out: NO IC50
[3] = 2 h pretreatment, 20 ng/mL interferon gamma 24 h, average of trials per footnote

SMILES: CC1(C)CC[C@]2(CNC(=O)C3CC3)CC[C@]3(C)[C@H](C(=O)C=C4[C@@]5(C)C=C(C#N)C(=O)C(C)(C)[C@@H]5CC[C@]43C)[C@@H]2C1 [Compound T4]
- AREc32 EC2X Relative to RTA 402 (Mean ± SD) [1]: 0.3 ± 0.08^b fold
- EC (2-fold) [1]: 0.0032 ± 0.00032 µM
- inhibition at 10 min, 1 µM (CYP3A4): 30.7%
- NO IC50 Rel. to RTA 402 [2]: 0.26 fold and 0.26 ± 0.08^h fold
- times more active (NO IC50) than 63236 relative to RTA 402 [2]: more than 220 times
- times more active (NO IC50) than 63866 relative to RTA 402 [2]: roughly 4.5 times
- IC50 [2, 3]: 0.51 nM

SMILES: CC1(C)CC[C@]2(CN3CCC3=O)CC[C@]3(C)[C@H](C(=O)C=C4[C@@]5(C)C=C(C#N)C(=O)C(C)(C)[C@@H]5CC[C@]43C)[C@@H]2C1 [Compound T10]
- AREc32 EC2X Relative to RTA 402 (Mean ± SD) [1]: 0.5 ± 0.13^c fold
- EC (2-fold) [1]: 0.0052 ± 0.00249 µM
- inhibition at 10 min, 1 µM (CYP3A4): 33.2%
- NO IC50 Rel. to RTA 402 [2]: 0.45 ± 0.08^g fold
- IC50 [2, 3]: 1.12 ± 0.44 nM

SMILES: CC1(C)CC[C@]2(CN3CCCC3=O)CC[C@]3(C)[C@H](C(=O)C=C4[C@@]5(C)C=C(C#N)C(=O)C(C)(C)[C@@H]5CC[C@]43C)[C@@H]2C1 [Compound T11]
- AREc32 EC2X Relative to RTA 402 (Mean ± SD) [1]: 0.5 ± 0.08^d fold
- EC (2-fold) [1]: 0.0067 ± 0.0017 µM
- inhibition at 10 min, 1 µM (CYP3A4): 12.5%
- NO IC50 Rel. to RTA 402 [2]: 0.58 ± 0.18^f fold
- IC50 [2, 3]: 1.08 ± 0.44 nM

SMILES: CC1(C)CC[C@]2(Cn3ccnc3)CC[C@]3(C)[C@H](C(=O)C=C4[C@@]5(C)C=C(C#N)C(=O)C(C)(C)[C@@H]5CC[C@]43C)[C@@H]2C1 [Compound T17]
- AREc32 EC2X Relative to RTA 402 (Mean ± SD) [1]: 1.6 ± 0.22^g fold
- EC (2-fold) [1]: 0.0162 ± 0.00085 µM
- AREc32 Relative to CC in Same Experiment (Mean ± SD) ([1]; comparison compound CC2): 1.009 ± 0.052
- inhibition at 10 min, 1 µM (CYP3A4): 31.8%

SMILES: CC1(C)CC[C@]2(Cn3cnnn3)CC[C@]3(C)[C@H](C(=O)C=C4[C@@]5(C)C=C(C#N)C(=O)C(C)(C)[C@@H]5CC[C@]43C)[C@@H]2C1 [Compound T18]
- AREc32 EC2X Relative to RTA 402 (Mean ± SD) [1]: 0.6 ± 0.05^g fold
- EC (2-fold) [1]: 0.0057 ± 0.00044 µM
- AREc32 Relative to CC in Same Experiment (Mean ± SD) ([1]; comparison compound CC2): 0.356 ± 0.015
- inhibition at 10 min, 1 µM (CYP3A4): 46.5%
- NO IC50 Rel. to RTA 402 [2]: 0.76 fold and 0.76 ± 0.10^e fold
- times more active (NO IC50) than CC2 relative to RTA 402 [2]: more than twice as active
- IC50 [2, 3]: 0.92 nM

SMILES: CC1(C)CC[C@]2(Cn3ccnn3)CC[C@]3(C)[C@H](C(=O)C=C4[C@@]5(C)C=C(C#N)C(=O)C(C)(C)[C@@H]5CC[C@]43C)[C@@H]2C1 [Compound T19]
- EC (2-fold) [1]: 0.0084 ± 0.00126 µM
- AREc32 Relative to CC in Same Experiment (Mean ± SD) ([1]; comparison compound CC2): 0.522 ± 0.052
- inhibition at 10 min, 1 µM (CYP3A4): 33.8%
- NO IC50 Rel. to RTA 402 [2]: 0.93 fold and 0.93 ± 0.22^e fold
- times more active (NO IC50) than CC2 relative to RTA 402 [2]: roughly 1.6 times
- IC50 [2, 3]: 1.11 nM
- IC50 ([2]; interferon gamma): 1.11 nM

SMILES: CC1(C)CC[C@]2(Cn3cccn3)CC[C@]3(C)[C@H](C(=O)C=C4[C@@]5(C)C=C(C#N)C(=O)C(C)(C)[C@@H]5CC[C@]43C)[C@@H]2C1 [Compound T20]
- EC (2-fold) [1]: 0.0153 ± 0.00084 µM
- AREc32 Relative to CC in Same Experiment (Mean ± SD) ([1]; comparison compound CC2): 0.954 ± 0.101
- inhibition at 10 min, 1 µM (CYP3A4): 13.2%
- NO IC50 Rel. to RTA 402 [2]: 1.93 ± 0.41^e fold
- IC50 [2, 3]: 3.28 ± 0.32 nM

SMILES: CC1(C)CC[C@]2(Cn3cncn3)CC[C@]3(C)[C@H](C(=O)C=C4[C@@]5(C)C=C(C#N)C(=O)C(C)(C)[C@@H]5CC[C@]43C)[C@@H]2C1 [Compound T21]
- AREc32 EC2X Relative to RTA 402 (Mean ± SD) [1]: 1.1 ± 0.20^g fold
- EC (2-fold) [1]: 0.0105 ± 0.00165 µM
- AREc32 Relative to CC in Same Experiment (Mean ± SD) ([1]; comparison compound CC2): 0.649 ± 0.070
- inhibition at 10 min, 1 µM (CYP3A4): 18.9%
- NO IC50 Rel. to RTA 402 [2]: 0.57 ± 0.07^e fold
- IC50 [2, 3]: 1.18 ± 0.21 nM

SMILES: CC1(C)CC[C@]2(n3cncn3)CC[C@]3(C)[C@H](C(=O)C=C4[C@@]5(C)C=C(C#N)C(=O)C(C)(C)[C@@H]5CC[C@]43C)[C@@H]2C1 [Compound T33]
- AREc32 EC2X Relative to RTA 402 (Mean ± SD) [1]: 1.2 ± 0.18^f fold
- EC (2-fold) [1]: 0.0136 ± 0.00131 µM
- AREc32 Relative to CC in Same Experiment (Mean ± SD) ([1]; comparison compound CC4): 0.484 ± 0.060
- inhibition at 10 min, 1 µM (CYP3A4): 49%
- NO IC50 Rel. to RTA 402 [2]: 1.35 ± 0.26^d fold
- IC50 [2, 3]: 5.62 ± 1.81 nM

SMILES: CC1(C)CC[C@]2(n3ccnn3)CC[C@]3(C)[C@H](C(=O)C=C4[C@@]5(C)C=C(C#N)C(=O)C(C)(C)[C@@H]5CC[C@]43C)[C@@H]2C1 [Compound T35]
- AREc32 EC2X Relative to RTA 402 (Mean ± SD) [1]: 0.6 ± 0.18^f fold
- EC (2-fold) [1]: 0.0071 ± 0.00073 µM
- AREc32 Relative to CC in Same Experiment (Mean ± SD) ([1]; comparison compound CC4): 0.262 ± 0.020
- inhibition at 10 min, 1 µM (CYP3A4): 41.7%
- NO IC50 Rel. to RTA 402 [2]: 0.64 fold and 0.64 ± 0.04^e fold
- times more active (NO IC50) than CC4 relative to RTA 402 [2]: ~4 times
- IC50 [2, 3]: 1.3 nM
